Data set [1] addresses Multidrug resistance protein 1a (Rattus norvegicus) (UniProt Q6PSM0). The data set is described as follows: (§1) TP_TRANSPORTER: Branched DNA assay in vivo SD rat, liver. Conditions: Sprague-Dawley. Format: functional, organism-based.
For data set [2], the target named is T1, ATP-dependent translocase ABCB1 (Rattus norvegicus, UniProt P43245). The description is as §1. The class given is functional, organism-based, Sprague-Dawley.
Data set [3] deals with T1, ATP-dependent translocase ABCB1. In words: TP_TRANSPORTER: Branched DNA assay in vivo SD rat, kidney. Format: functional, organism-based, Sprague-Dawley.

Each structure is given as a SMILES string.

T1 sequence (P43245 whole entry): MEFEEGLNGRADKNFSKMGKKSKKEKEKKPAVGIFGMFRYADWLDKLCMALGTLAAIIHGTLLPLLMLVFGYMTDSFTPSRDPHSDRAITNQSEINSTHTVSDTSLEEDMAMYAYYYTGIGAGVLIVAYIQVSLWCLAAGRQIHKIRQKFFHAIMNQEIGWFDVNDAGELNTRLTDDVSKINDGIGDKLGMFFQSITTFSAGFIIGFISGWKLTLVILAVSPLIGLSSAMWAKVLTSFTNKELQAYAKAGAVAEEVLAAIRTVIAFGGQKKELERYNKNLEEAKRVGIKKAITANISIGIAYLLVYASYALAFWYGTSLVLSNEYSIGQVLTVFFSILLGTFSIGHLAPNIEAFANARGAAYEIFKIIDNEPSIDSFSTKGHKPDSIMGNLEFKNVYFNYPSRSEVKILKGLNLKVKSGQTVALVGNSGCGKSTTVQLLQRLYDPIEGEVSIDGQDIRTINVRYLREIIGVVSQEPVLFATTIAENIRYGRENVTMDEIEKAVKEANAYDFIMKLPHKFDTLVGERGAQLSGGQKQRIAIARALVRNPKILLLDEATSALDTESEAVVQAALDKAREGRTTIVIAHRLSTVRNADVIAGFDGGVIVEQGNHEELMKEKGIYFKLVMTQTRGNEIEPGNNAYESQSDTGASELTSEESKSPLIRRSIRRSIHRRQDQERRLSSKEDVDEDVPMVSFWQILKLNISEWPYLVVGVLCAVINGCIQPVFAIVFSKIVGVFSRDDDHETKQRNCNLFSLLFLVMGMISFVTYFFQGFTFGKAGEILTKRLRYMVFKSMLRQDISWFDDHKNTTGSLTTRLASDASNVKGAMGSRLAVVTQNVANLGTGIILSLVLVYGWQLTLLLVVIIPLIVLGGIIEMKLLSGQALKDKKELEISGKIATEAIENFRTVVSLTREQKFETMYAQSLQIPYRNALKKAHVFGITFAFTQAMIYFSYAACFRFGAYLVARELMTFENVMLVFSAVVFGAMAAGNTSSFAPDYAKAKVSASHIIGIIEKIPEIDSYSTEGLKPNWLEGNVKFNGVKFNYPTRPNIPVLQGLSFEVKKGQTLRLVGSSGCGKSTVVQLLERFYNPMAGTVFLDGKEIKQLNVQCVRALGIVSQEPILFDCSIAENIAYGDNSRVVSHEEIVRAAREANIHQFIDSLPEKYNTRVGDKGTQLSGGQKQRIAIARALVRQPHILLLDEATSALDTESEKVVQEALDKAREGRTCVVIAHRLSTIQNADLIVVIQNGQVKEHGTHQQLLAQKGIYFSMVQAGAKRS
Chain of Multidrug resistance protein 1a (Rattus norvegicus) (Q6PSM0 as listed by the source): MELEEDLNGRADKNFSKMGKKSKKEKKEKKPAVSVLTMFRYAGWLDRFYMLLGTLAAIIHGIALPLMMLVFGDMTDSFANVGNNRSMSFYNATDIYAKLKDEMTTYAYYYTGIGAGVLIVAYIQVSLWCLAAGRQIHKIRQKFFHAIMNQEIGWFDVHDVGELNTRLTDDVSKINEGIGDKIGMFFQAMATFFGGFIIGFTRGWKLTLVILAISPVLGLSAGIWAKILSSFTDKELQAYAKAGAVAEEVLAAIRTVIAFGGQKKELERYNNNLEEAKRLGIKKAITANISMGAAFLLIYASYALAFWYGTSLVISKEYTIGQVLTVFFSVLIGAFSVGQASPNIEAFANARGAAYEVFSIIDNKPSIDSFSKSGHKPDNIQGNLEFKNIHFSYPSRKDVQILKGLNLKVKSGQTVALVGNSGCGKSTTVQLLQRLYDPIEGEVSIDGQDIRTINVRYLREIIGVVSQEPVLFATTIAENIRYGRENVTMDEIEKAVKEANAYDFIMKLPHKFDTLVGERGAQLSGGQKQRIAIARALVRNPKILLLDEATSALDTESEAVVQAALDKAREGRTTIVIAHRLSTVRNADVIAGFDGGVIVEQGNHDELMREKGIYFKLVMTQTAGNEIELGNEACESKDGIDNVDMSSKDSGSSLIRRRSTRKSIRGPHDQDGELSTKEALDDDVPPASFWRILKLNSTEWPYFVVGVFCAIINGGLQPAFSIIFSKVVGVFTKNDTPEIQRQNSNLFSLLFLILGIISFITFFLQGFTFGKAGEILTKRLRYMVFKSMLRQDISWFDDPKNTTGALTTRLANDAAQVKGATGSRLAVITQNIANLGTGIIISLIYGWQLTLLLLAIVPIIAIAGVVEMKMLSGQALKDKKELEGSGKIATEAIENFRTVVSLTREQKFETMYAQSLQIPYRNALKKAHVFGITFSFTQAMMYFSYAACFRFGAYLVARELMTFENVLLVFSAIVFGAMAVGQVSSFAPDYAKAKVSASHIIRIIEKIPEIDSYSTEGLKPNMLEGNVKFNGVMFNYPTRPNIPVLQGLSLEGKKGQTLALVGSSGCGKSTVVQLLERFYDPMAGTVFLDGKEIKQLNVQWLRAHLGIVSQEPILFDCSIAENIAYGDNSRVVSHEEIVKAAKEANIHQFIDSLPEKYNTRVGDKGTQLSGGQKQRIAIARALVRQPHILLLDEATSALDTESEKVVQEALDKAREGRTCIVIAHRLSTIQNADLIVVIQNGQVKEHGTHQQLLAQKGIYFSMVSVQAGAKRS

For `C=CCSCC=C`, the Activity result in data set [1] is “inducer [+]”.
For the compound `NNC(=O)c1ccncc1`, the Activity entry in data set [1] was “inducer [+]”.
Regarding `OCc1c[nH]c2ccccc12` [INDOLE-3-CARBINOL], the Activity result in data set [2] is “inducer [+]”.
Same read-out and setting: next, `Clc1ccc(-c2cc(Cl)c(Cl)cc2Cl)c(Cl)c1` [POLYCHLORINATED BIPHENYL 99]: “inducer [+]”.
As to `Cc1c(-c2cnccn2)ssc1=S`, the Activity result in data set [1] was “inducer [+]”.
In the case of `CN(N=O)C(=O)N[C@@H](C=O)[C@@H](O)[C@H](O)[C@H](O)CO` [STREPTOZOCIN], the Activity result in data set [3] and in data set [2] was “inducer [+]” throughout.
